Measured values from PMC9652263 (Investigational New Drugs, 2022).
Where “and” joins values, the source holds several entries; their conditions need not be identical. Equal entries are not always repeated. Where two headings read alike, the source gives them in different places.

Tests used:
patients = details: single-agent weekly paclitaxel; cited from earlier work
clinical = details: human, in vivo
Procedure: (§1) Blood and plasma concentration–time profiles were analyzed by standard non-compartmental methods. Individual PK parameters were tabulated and summarized.
(§2) Both drugs were measured by validated liquid extraction methods followed by ultra-performance liquid chromatography tandem mass-spectrometry detection (Dynakin, Derio, Spain).

[1] = for HL, Mean: transformed into the natural logarithm
Procedure: as §1, §2

[2] = test system: SCLC, breast, ovarian, endometrial cancer, NSCLC; details: cited from earlier work
[3] = test system: patients with advanced solid tumors; assay: Dose escalation and dose-limiting toxicities (phase I, 3+3 design); details: combination q3wk; paclitaxel on D1 and D8, lurbinectedin on D1
Procedure: Furthermore, during dose escalation lurbinectedin was converted to a body surface area (BSA)-based dose.
The DL5 cohort was then expanded, converting lurbinectedin to a BSA-based dose of 2.2 mg/m^2 (calculated by dividing 4.0 mg FD by a BSA of 1.8 m^2).
Patient accrual began in Group A, with dose escalation following a standard 3+3 design. […] During dose escalation in Group A, lurbinectedin was converted to a body surface area (BSA)-based dose (calculated by dividing the allocated FD by a BSA of 1.8 m^2).

[4] = test system: patients with advanced solid tumors; details: cited from earlier work
[5] = Cycle 1, DL1: paclitaxel 60 / lurbinectedin 3.0 mg FD, mean (SD)
[6] = Cycle 1, DL2: paclitaxel 60 / lurbinectedin 4.0 mg FD, mean (SD)
[7] = Cycle 1, DL3: paclitaxel 60 / lurbinectedin 5.0 mg FD, mean (SD)
[8] = Cycle 1, DL4 (MTD): paclitaxel 80 / lurbinectedin 5.0 mg FD, mean (SD)
[9] = Cycle 1, DL5 (RD): paclitaxel 80 / lurbinectedin 2.2 mg/m^2, mean (SD)
[10] = Cycle 1, DL5 (RD): paclitaxel 80 / lurbinectedin 4.0 mg FD, mean (SD)
[11] = Cycle 1, RD + BEV 80 / 2.2 / 15, mean (SD)
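Throughout, for CL: blood and plasma drug levels in patients quantified by UPLC tandem mass spectrometry, with PK parameters derived by non-compartmental analysis of concentration–time profiles.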
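Throughout, for Cmax: blood and plasma drug levels in patients quantified by UPLC tandem mass spectrometry, with PK parameters derived by non-compartmental analysis of concentration–time profiles.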
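Throughout, for Vd: blood and plasma drug levels in patients quantified by UPLC tandem mass spectrometry, with PK parameters derived by non-compartmental analysis of concentration–time profiles.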
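Throughout, for potential drug-drug interaction: CL of each drug at the high AUC of the other drug: blood and plasma drug levels in patients quantified by UPLC tandem mass spectrometry, with PK parameters derived by non-compartmental analysis of concentration–time profiles.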

CC(=O)O[C@H]1C(=O)[C@@]2(C)[C@H]([C@H](OC(=O)c3ccccc3)[C@]3(O)C[C@H](OC(=O)[C@H](O)[C@@H](NC(=O)c4ccccc4)c4ccccc4)C(C)=C1C3(C)C)[C@]1(OC(C)=O)CO[C@@H]1C[C@@H]2O [Paclitaxel]
incidence of peripheral neuropathy, grade 3/4 (patients): 3–21% | clearance (clinical; 2.2 mg/m2, CL): 525 mL/min | Vd (clinical; 2.2 mg/m2, Vss): 324 L | Vd (clinical; 2.2 mg/m2, Vz): 662 L | clearance (clinical; 3 mg, CL): 437 mL/min | Cmax (clinical; 3 mg): 2370 ng/mL | Vd (clinical; 3 mg, Vss): 315 L | Vd (clinical; 3 mg, Vz): 689 L | half-life (clinical; 4 mg): 29.2 h | clearance (clinical; 4 mg, CL): 487 mL/min | Cmax (clinical; 4 mg): 1500 ng/mL | Vd (clinical; 4 mg, Vss): 577 L | Vd (clinical; 4 mg, Vz): 934 L | clearance (clinical; 5 mg, CL): 575 mL/min | Cmax (clinical; 5 mg): 1980 ng/mL | Vd (clinical; 5 mg, Vss): 430 L | Vd (clinical; 5 mg, Vz): 858 L | potential drug-drug interaction: CL of each drug at the high AUC of the other drug ([1]; human, in vivo): slight decrease | variability of total clearance (CL) ([1]; human, in vivo): Wide variability | Cmax ([1]; human, in vivo, 2.2 mg/m2): 3004 (971.4) μg/L | CL ([1]; human, in vivo, 4 mg): 31.1 (6.2) L/h | Cmax ([1]; human, in vivo, 4 mg): 2908 (482.2) μg/L | Vss ([1]; human, in vivo, 4 mg): 315.3 (89.7) L | Vz ([1]; human, in vivo, 4 mg): 639.9 (128.6) L | CL ([1]; human, in vivo, 5 mg): 30.2 (8.6) L/h | Cmax ([1]; human, in vivo, 5 mg): 3122 (1420) μg/L | Vss ([1]; human, in vivo, 5 mg): 323.2 (266.8) L | Vz ([1]; human, in vivo, 5 mg): 627.5 (185.2) L | response rate ([2]; single-agent weekly 80 mg/m^2/week, metastatic breast cancer): 22–42% | response rate ([2]; single-agent weekly 80 mg/m^2/week, relapsed ovarian cancer): 21–60% | response rate ([2]; single-agent weekly 80 mg/m^2/week, relapsed/refractory SCLC): 20–27%

COc1ccc2[nH]c3c(c2c1)CCN[C@]31CS[C@@H]2c3c(OC(C)=O)c(C)c4c(c3[C@H](COC1=O)N1[C@@H]2[C@H]2c3c(cc(C)c(OC)c3O)C[C@@H]([C@@H]1O)N2C)OCO4 [Lurbinectedin]
recommended dose (RD) [3]: 2.2 mg/m^2 | recommended dose (RD), single-agent ([4]; 1-h i.v. infusion q3wk): 7.0 mg flat dose (FD) and 7 mg flat dose (FD) | median half-life ([4]; single agent at the RD (7 mg FD)): 70.6 h | AUC ([1]; Cycle 1, DL1: paclitaxel 60 mg/m^2 D1,D8,D15 / lurbinectedin 3.0 mg FD, mean (SD)): 405.9 (129.6) h* μg/L | CL [1, 5]: 7.8 (2.2) L/h | Cmax [1, 5]: 97.7 (45.5) μg/L | HL (terminal half-life) [1, 5]: 52.8 (3.7) h | Vss [1, 5]: 299.4 (84.4) L | Vz [1, 5]: 602.1 (193.0) L | AUC ([1]; Cycle 1, DL2: paclitaxel 60 mg/m^2 D1,D8,D15 / lurbinectedin 4.0 mg FD, mean (SD)): 357.9 (174.2) h* μg/L | CL [1, 6]: 14.2 (9.4) L/h | Cmax [1, 6]: 74.0 (18.9) μg/L | HL (terminal half-life) [1, 6]: 82.1 (65.7) h | Vss [1, 6]: 733.7 (415.1) L | Vz [1, 6]: 1161 (563.2) L | AUC ([1]; Cycle 1, DL3: paclitaxel 60 mg/m^2 D1,D8,D15 / lurbinectedin 5.0 mg FD, mean (SD)): 714.0 (416.3) h* μg/L | CL [1, 7]: 8.8 (4.0) L/h | Cmax [1, 7]: 127.0 (74.0) μg/L | HL (terminal half-life) [1, 7]: 46.6 (15.5) h | Vss [1, 7]: 343.2 (150.1) L | Vz [1, 7]: 530.8 (164.6) L | AUC ([1]; Cycle 1, DL4 (MTD): paclitaxel 80 mg/m^2 D1,D8 / lurbinectedin 5.0 mg FD, mean (SD)): 376.2 (151.4) h* μg/L | CL [1, 8]: 15.2 (6.0) L/h | Cmax [1, 8]: 109.5 (28.4) μg/L | HL (terminal half-life) [1, 8]: 38.6 (8.3) h | Vss [1, 8]: 401.8 (99.1) L | Vz [1, 8]: 806.0 (243.4) L | AUC ([1]; Cycle 1, DL5 (RD): paclitaxel 80 mg/m^2 D1,D8 / lurbinectedin 2.2 mg/m^2, mean (SD)): 440.5 (224.4) h* μg/L | AUC ([1]; Cycle 1, DL5 (RD): paclitaxel 80 mg/m^2 D1,D8 / lurbinectedin 4.0 mg FD, mean (SD)): 436.2 (238.3) h* μg/L | CL [1, 9]: 11.1 (5.3) L/h | Cmax [1, 9]: 96.3 (34.7) μg/L | HL (terminal half-life) [1, 9]: 49.3 (22.5) h | Vss [1, 9]: 454.9 (222.6) L | Vz [1, 9]: 727.6 (346.9) L | CL [1, 10]: 12.0 (7.0) L/h | Cmax [1, 10]: 83.9 (42.5) μg/L | HL (terminal half-life) [1, 10]: 47.1 (23.0) h | Vss [1, 10]: 420.9 (182.7) L | Vz [1, 10]: 701.8 (268.9) L | CL [1, 11]: 13.8 (6.5) L/h | Cmax [1, 11]: 88.7 (28.9) μg/L | HL (terminal half-life) [1, 11]: 40.0 (15.7) h | Vss [1, 11]: 408.5 (161.7) L | Vz [1, 11]: 724.9 (340.5) L | AUC ([1]; Cycle 1, RD + BEV: paclitaxel 80 mg/m^2 / lurbinectedin 2.2 mg/m^2 / BEV 15 mg/kg, mean (SD)): 351.2 (175.9) h* μg/L | differences in PK parameters in the presence or absence of BEV ([1]; RD in Group A vs Group B, Cycle 1): No statistically significant differences | variability of total clearance (CL) ([1]; all dose levels): Wide variability | dose linearity of maximum concentration (Cmax) and AUC ([1]; dose levels 3.0–5.0 mg FD in combination with paclitaxel): No dose linearity could be established | potential drug-drug interaction: CL of each drug at the high AUC of the other drug ([1]; paclitaxel with lurbinectedin): slight decrease | HL, Mean ([1]; Cycle 1, Group A at the RD (31 patients)): 3.802 | HL, Mean ([1]; Cycle 1, Group B with BEV (12 patients)): 3.603 | response rate ([2]; monotherapy, BRCA-unselected breast cancer): 9% | response rate ([2]; monotherapy, ovarian cancer): 14–23% | response rate ([2]; monotherapy, second-line treatment of patients with SCLC): 35%

Bevacizumab
improvement in ORR with the addition of BEV to chemotherapy vs. chemotherapy alone ([2]; recurrent ovarian cancer and previously untreated NSCLC): 15–20%
